The record followed here is patent US10800782B2, “Inhibitors of cellular metabolic processes” (Agios Pharmaceuticals, Inc., priority 2016, dated 2020).

In this test the target is T1, MAT2A (Homo sapiens, UniProt P31153).
T1 construct: His6; made in house; host or cells: SF9 insect cells
T1 sequence (P31153 whole entry): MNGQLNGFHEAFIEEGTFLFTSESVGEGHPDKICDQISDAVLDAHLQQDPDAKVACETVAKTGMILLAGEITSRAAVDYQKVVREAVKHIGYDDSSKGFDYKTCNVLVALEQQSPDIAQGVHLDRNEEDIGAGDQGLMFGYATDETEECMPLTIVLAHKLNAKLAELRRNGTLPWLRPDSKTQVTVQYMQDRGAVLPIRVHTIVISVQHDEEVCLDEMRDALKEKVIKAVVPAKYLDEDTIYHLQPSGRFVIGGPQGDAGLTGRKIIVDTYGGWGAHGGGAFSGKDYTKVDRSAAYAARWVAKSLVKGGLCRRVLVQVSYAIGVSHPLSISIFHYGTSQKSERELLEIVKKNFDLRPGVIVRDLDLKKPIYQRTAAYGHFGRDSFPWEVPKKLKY
Description: MAT2A biochemical assay (colorimetric inorganic phosphate detection, PiColorLock). The following applies: recombinant His6-tagged MAT2A 1 μg/ml; 60 minutes preincubation at 25° C.; L-Met 80 μM, ATP 100 μM; 60 minutes reaction; read at 623 nm; read-out: MAT2A Inhibition Score. The procedure, abridged:
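His6-tagged human MAT2A (SF9-expressed, 1 μg/ml) converting L-Met and ATP to SAM in Tris pH 8.0, 50 mM KCl, 15 mM MgCl2, 300 uM EDTA, 0.005% BSA; 60 min at room temperature. Released phosphate detected colorimetrically with malachite green phosphomolybdate. Ten-point, three-fold compound dilution series.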
Take `COc1ccc(-c2c(C)[nH]c3c(-c4cc[nH]c4)c(-c4ccccc4)nn3c2=O)cc1` [Compound 220, 6-(4-methoxyphenyl)-5-methyl-2-phenyl-3-(1H-pyrrol-3-yl)pyrazolo[1,5-a]pyrimidin-7(4H)-one]: the IC50 was under 100 nM. The result for `COc1ccc(-c2c(CO)[nH]c3c(-c4ccccc4)c(-c4ccccc4)nn3c2=O)cc1` [Compound 221, 5-(hydroxymethyl)-6-(4-methoxyphenyl)-2,3-diphenylpyrazolo[1,5-a]pyrimidin-7(4H)-one] reads under 100 nM. For the compound `COc1ccc(-c2c(CN)[nH]c3c(-c4ccccc4)c(-c4ccccc4)nn3c2=O)cc1` [Compound 222, 5-(aminomethyl)-6-(4-methoxyphenyl)-2,3-diphenylpyrazolo[1,5-a]pyrimidin-7(4H)-one], the IC50 is under 100 nM. The value for `NCc1[nH]c2c(-c3ccccc3)c(-c3ccccc3)nn2c(=O)c1-c1ccc2c(c1)OCCO2` [Compound 223, 5-(aminomethyl)-6-(2,3-dihydrobenzo[b][1,4]dioxin-6-yl)-2,3-diphenylpyrazolo[1,5-a]pyrimidin-7(4H)-one] was under 100 nM. The value for `NCc1[nH]c2c(-c3ccccc3)c(-c3ccccc3)nn2c(=O)c1-c1ccc2ncccc2c1` [Compound 224, 5-(aminomethyl)-2,3-diphenyl-6-(quinolin-6-yl)pyrazolo[1,5-a]pyrimidin-7(4H)-one] was under 100 nM.

Consider `O=c1c(-c2ccc3c(c2)OCCO3)c(CO)[nH]c2c(C3=CCCCC3)c(-c3ccccc3)nn12` [Compound 225, 3-(cyclohex-1-en-1-yl)-6-(2,3-dihydrobenzo[b][1,4]dioxin-6-yl)-5-(hydroxymethyl)-2-phenylpyrazolo[1,5-a]pyrimidin-7(4H)-one], for which the IC50 is under 100 nM. Take `NCc1[nH]c2c(C3=CCCCC3)c(-c3ccccc3)nn2c(=O)c1-c1ccc2c(c1)OCCO2` [Compound 226, 5-(aminomethyl)-3-(cyclohex-1-en-1-yl)-6-(2,3-dihydrobenzo[b][1,4]dioxin-6-yl)-2-phenylpyrazolo[1,5-a]pyrimidin-7(4H)-one]: the IC50 was under 100 nM.

Regarding `O=C(CO)NCc1[nH]c2c(-c3ccccc3)c(-c3ccccc3)nn2c(=O)c1-c1ccc2ncccc2c1` [Compound 227, 2-hydroxy-N-((7-oxo-2,3-diphenyl-6-(quinolin-6-yl)-4,7-dihydropyrazolo[1,5-a]pyrimidin-5-yl)methyl)acetamide], the IC50 is under 100 nM. The value for `CC(=O)NCc1[nH]c2c(-c3ccccc3)c(-c3ccccc3)nn2c(=O)c1-c1ccc2ncccc2c1` [Compound 228, N-((7-oxo-2,3-diphenyl-6-(quinolin-6-yl)-4,7-dihydropyrazolo[1,5-a]pyrimidin-5-yl)methyl)acetamide] was under 100 nM. The value for `COc1ccc(-c2c(CO)[nH]c3c(C4=CCCCC4)c(-c4ccccc4)nn3c2=O)cc1` [Compound 229, 3-(cyclohex-1-en-1-yl)-5-(hydroxymethyl)-6-(4-methoxyphenyl)-2-phenylpyrazolo[1,5-a]pyrimidin-7(4H)-one] was under 100 nM; that for `O=c1c(-c2ccc3ncccc3c2)c(CO)[nH]c2c(C3=CCCCC3)c(-c3ccccc3)nn12` [Compound 230, 3-(cyclohex-1-en-1-yl)-5-(hydroxymethyl)-2-phenyl-6-(quinolin-6-yl)pyrazolo[1,5-a]pyrimidin-7(4H)-one] was under 100 nM; that for `O=c1c(-c2ccc3nccnc3c2)c(CO)[nH]c2c(C3=CCCCC3)c(-c3ccccc3)nn12` [Compound 231, 3-(cyclohex-1-en-1-yl)-5-(hydroxymethyl)-2-phenyl-6-(quinoxalin-6-yl)pyrazolo[1,5-a]pyrimidin-7(4H)-one] was under 100 nM. The result for `COc1ccc(-c2c(CN)[nH]c3c(C4=CCCCC4)c(-c4ccccc4)nn3c2=O)cc1` [Compound 232, 5-(aminomethyl)-3-(cyclohex-1-en-1-yl)-6-(4-methoxyphenyl)-2-phenylpyrazolo[1,5-a]pyrimidin-7(4H)-one] reads under 100 nM; that for `NCc1[nH]c2c(C3=CCCCC3)c(-c3ccccc3)nn2c(=O)c1-c1ccc2ncccc2c1` [Compound 233, 5-(aminomethyl)-3-(cyclohex-1-en-1-yl)-2-phenyl-6-(quinolin-6-yl)pyrazolo[1,5-a]pyrimidin-7(4H)-one], under 100 nM. For the compound `NCc1[nH]c2c(C3=CCCCC3)c(-c3ccccc3)nn2c(=O)c1-c1ccc2nccnc2c1` [Compound 234, 5-(aminomethyl)-3-(cyclohex-1-en-1-yl)-2-phenyl-6-(quinoxalin-6-yl)pyrazolo[1,5-a]pyrimidin-7(4H)-one], the IC50 was under 100 nM. For `NC(=O)NCc1[nH]c2c(-c3ccccc3)c(-c3ccccc3)nn2c(=O)c1-c1ccc2ncccc2c1` [Compound 235, 1-((7-oxo-2,3-diphenyl-6-(quinolin-6-yl)-4,7-dihydropyrazolo[1,5-a]pyrimidin-5-yl)methyl)urea], the IC50 was under 100 nM. The result for `NCc1[nH]c2c(-c3ccccc3)c(-c3ccccc3)nn2c(=O)c1-c1ccc(O)cc1` [Compound 236, 5-(aminomethyl)-6-(4-hydroxyphenyl)-2,3-diphenylpyrazolo[1,5-a]pyrimidin-7(4H)-one] reads under 100 nM; that for `Cc1[nH]c2c(-c3ccccc3)c(-c3ccccc3)nn2c(=O)c1-c1ccc(O)cc1` [Compound 237, 6-(4-hydroxyphenyl)-5-methyl-2,3-diphenylpyrazolo[1,5-a]pyrimidin-7(4H)-one], under 100 nM; that for `Cc1[nH]c2c(-c3ccccc3)c(-c3ccccc3)nn2c(=O)c1-c1ccc(O)c(F)c1` [Compound 238, 6-(3-fluoro-4-hydroxyphenyl)-5-methyl-2,3-diphenylpyrazolo[1,5-a]pyrimidin-7(4H)-one], under 100 nM.

With `Cc1[nH]c2c(-c3ccccc3)c(-c3ccccc3)nn2c(=O)c1-c1ccc(O)c(Cl)c1` [Compound 239, 6-(3-chloro-4-hydroxyphenyl)-5-methyl-2,3-diphenylpyrazolo[1,5-a]pyrimidin-7(4H)-one], the IC50 was under 100 nM. On to `Cc1[nH]c2c(C3=CCCCC3)c(-c3ccccc3)nn2c(=O)c1-c1ccc(O)cc1` [Compound 240, 3-(cyclohex-1-en-1-yl)-6-(4-hydroxyphenyl)-5-methyl-2-phenylpyrazolo[1,5-a]pyrimidin-7(4H)-one], for which the IC50 was under 100 nM.

Consider `NCc1[nH]c2c(C3=CCCCC3)c(-c3ccccc3)nn2c(=O)c1-c1ccc(O)cc1` [Compound 241, 5-(aminomethyl)-3-(cyclohex-1-en-1-yl)-6-(4-hydroxyphenyl)-2-phenylpyrazolo[1,5-a]pyrimidin-7(4H)-one], for which the IC50 was under 100 nM. The value for `Cc1[nH]c2c(-c3ccccc3)c(-c3ccc(O)cc3)nn2c(=O)c1-c1ccc2ncccc2c1` [Compound 242, 2-(4-hydroxyphenyl)-5-methyl-3-phenyl-6-(quinolin-6-yl)pyrazolo[1,5-a]pyrimidin-7(4H)-one] was under 100 nM; that for `COc1ccc(-c2nn3c(=O)c(-c4ccc5ncccc5c4)c(C)[nH]c3c2-c2ccccc2)cc1` [Compound 243, 2-(4-methoxyphenyl)-5-methyl-3-phenyl-6-(quinolin-6-yl)pyrazolo[1,5-a]pyrimidin-7(4H)-one] was 1000 to 10000 nM; that for `O=c1c(-c2ccc3ncccc3c2)c[nH]c2c(-c3ccccc3)c(-c3ccccc3)nn12` [Compound 244, 2,3-diphenyl-6-(quinolin-6-yl)pyrazolo[1,5-a]pyrimidin-7(4H)-one] was under 100 nM.
